The term aqueous solubility denotes the dissolved amount per volume that the medium holds. One may read the solubility as how much of the substance goes into solution per volume.

The text below walks through data of patent US20110195030A1, “NANOPARTICLE COMPOSITIONS COMPRISING LIQUID OIL CORES” (The University of North Carolina at Chapel Hill, priority 2008, published 2011).

The conditions of data set [1]: reported in literature; cited from earlier work.
Data set [2] in a line: In-vitro release of paclitaxel by dialysis method. It is filed as physicochemical. To be noted: 37° C., PBS with 0.1% Tween 80. The procedure: PX release studies (n=4) were completed at 37° C. by the dialysis method using PBS with 0.1% Tween 80 as release medium. Before release studies, the solubility of PX in release medium was measured. Briefly, extra amounts of paclitaxel were added into 2 mL of release medium until saturation was attained. After centrifuge, the concentration of PX in the supernatant was determined by HPLC as described above. For release studies, one milliliter (1 mL) of PX G78 NPs was purified with a Microcon Y-100 and re-suspended into 1 mL D.I. water. The concentration of PX in re-suspended PX G78 NPs was measured by HPLC as described above. Eight hundred microliters of purified PX G78 NPs, PX BTM NPs and reconstituted lyo BTM NPs were placed into a regenerated cellulose dialysis membrane (MWCO 8000 Da) submerged in 40 mL PBS with 0.1% Tween 80, respectively, and then shaken in a water bath at a speed of 150 rpm at 37° C. Free PX also was used as a control. At predetermined times, 200 μL aliquots were taken from outside of the dialysis membrane, and replaced with 200 μL fresh media. PX was measured by HPLC as described above. Mass balance was confirmed by measuring PX concentration inside the dialysis membranes after 72 h. In addition, the particle sizes of PX NPs inside the dialysis membranes were measured when release studies were terminated (at 72 h).

Data set [3] in a line: Solubility of paclitaxel. The class given is physicochemical. The conditions noted are these: PBS with 0.1% Tween 80 (release medium), aqueous with cosolvent or surfactant or cyclodextrin, thermodynamic from solid; PBS with 0.1% Tween 80, room temperature, mean ± SD, n = 3.

≈ marks a conversion by molar mass, not a printed value. A value given as a limit tells only on which side of the number the result lay.

For `CC(=O)O[C@H]1C(=O)[C@@]2(C)[C@H]([C@H](OC(=O)c3ccccc3)[C@]3(O)C[C@H](OC(=O)[C@H](O)[C@@H](NC(=O)c4ccccc4)c4ccccc4)C(C)=C1C3(C)C)[C@]1(OC(C)=O)CO[C@@H]1C[C@@H]2O` [Paclitaxel], the aqueous solubility in data set [1] is 0.7 to 30 µg/mL. Besides, the “time to complete release” value in data set [2] is reported as no more than 4 h. Besides, the solubility in data set [3] is 10.8 ± 0.3 µg/mL (≈ 12.6 µM).
